Measured values from patent US20180186769A1, “6-AMINO-5-FLUORO-5-(FLUOROMETHYL)-2,3,4,5-TETRAHYDROPYRIDIN-2-YL-PHENYL-5-(METHOXY-D3)-PYRAZINE-2-CARBOXAMIDES AND FLUORINATED DERIVATIVES THEREOF AS BACE1 INHIBITORS” (H. Lundbeck A/S, priority 2016, published 2018).

How the values were obtained:
P-gp (MDR1) = test: MDCK-MDR1 assay (permeability, efflux ratio); type: in vitro ADME; conditions: dog, Papp BA/Papp AB
Description: The permeability of the test compounds was assessed in MDCK-MDR1 cells that were cultured to confluency (4-6 days) in a 96 transwell plate. Test compounds were diluted with the transport buffer (HBSS+1% BSA) to a concentration of 0.5 μM and applied to the apical or basolateral side of the cell monolayer. Permeation of the test compounds from A to B direction or B to A direction was determined in triplicate over a 60-minute incubation time at 37° C. and 5% CO2 with a relative humidity of 95%. Test compounds were quantified by LC-MS/MS analysis based on the peaks area ratios of analyte/IS in both the receiver and donor wells of the transwell plate.
The apparent permeability coefficient Papp (cm/s) was calculated using the equation: […]
Where dCr/dt is the cumulative concentration of compound in the receiver chamber as a function of time (μM/s); Vr is the solution volume in the receiver chamber (0.05 mL on the apical side; 0.25 mL on the basolateral side); A is the surface area for the transport, i.e. 0.0804 cm^2 for the area of the monolayer; CO is the initial concentration in the donor chamber (μM).
Compounds are classified Pgp substrates when efflux ratio (Papp BA/Papp AB) is ≥2.

[1] = Clearance in hepatocytes, human; type: in vitro ADME; conditions: read-out: CLint, Human (L/h/kg) ± SD (converted)
Excerpt: (§1) Deuterated compounds were compared to their non-deuterated parent counterparts to determine the impact of deuteration on clearance results

[2] = Clearance in hepatocytes, cyno; type: in vitro ADME; conditions: cynomolgus monkey, read-out: CLint, Cyno (L/h/kg) ± SD (converted)
Excerpt: as §1

BACE1 = BACE1 (Homo sapiens, UniProt P56817); test: BACE1 efficacy assay (FRET-based); type: biochemical; design: purchased Life Technologies P2985; conditions: 10 μM test compound
Description: The efficacy assay was performed as a FRET-based assay using a commercially available BACE1 kit (Life Technologies, P2985). 2 μl test compound at 10 μM (final concentration) and 15 μl BACE1 enzyme from the kit (final concentration 3 nM) were preincubated for 15 minutes at room temperature before addition of 15 μl of substrate from the kit (250 nM final concentration) and incubated for additional 90 minutes at room temperature. The assay plate was subsequently read in a Pherastar (Ex540/Em590). The enzyme activity observed in presence of test compound were normalized to the enzyme activity observed in presence of buffer and 10 μM (final concentration) of the high affinity BACE1 reference inhibitor (S)-6-[3-Chloro-5-(5-prop-1-ynyl-pyridin-3-yl)-thiophen-2-yl]-2-imino-3,6-dimethyl-tetrahydropyrimidin-4-one, respectively. The efficacy of the test compounds was evaluated at 10 μM (final concentration) and defined as the percent inhibition of the enzyme activity using the equation % inhibition=100%−normalized enzyme activity in percent.

Chain of BACE1 (P56817 46-501): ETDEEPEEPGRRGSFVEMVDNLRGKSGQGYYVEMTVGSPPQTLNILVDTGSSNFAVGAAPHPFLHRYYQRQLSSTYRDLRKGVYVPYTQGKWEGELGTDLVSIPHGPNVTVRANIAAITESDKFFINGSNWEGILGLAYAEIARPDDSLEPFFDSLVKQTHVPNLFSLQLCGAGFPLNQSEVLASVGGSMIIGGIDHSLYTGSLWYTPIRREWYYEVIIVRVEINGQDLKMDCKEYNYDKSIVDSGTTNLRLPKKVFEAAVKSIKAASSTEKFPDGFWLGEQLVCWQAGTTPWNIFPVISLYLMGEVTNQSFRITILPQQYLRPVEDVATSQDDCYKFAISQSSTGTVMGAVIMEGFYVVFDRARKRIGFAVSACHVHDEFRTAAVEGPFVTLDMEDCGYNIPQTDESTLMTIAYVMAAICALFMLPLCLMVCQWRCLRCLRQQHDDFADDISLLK

With `[2H]C([2H])([2H])Oc1cnc(C(=O)Nc2ccc(F)c([C@]3(C)CC[C@@](F)(CF)C(N)=N3)c2)cn1` [Example 1, N-(3-((2S,5S)-6-amino-5-fluoro-5-(fluoromethyl)-2-methyl-2,3,4,5-tetrahydropyridin-2-yl)-4-fluorophenyl)-5-(methoxy-d3)pyrazine-2-carboxamide] the efflux ratio at 60 min, 0.5 μM (P-gp (MDR1)) was 1.39, the CLint scaled at 0.1 µM ([1]; 0.1 microM) was under 0.1 L/h/kg and the CLint scaled at 0.3 µM ([1]; 0.3 microM) was under 0.1 L/h/kg. For the same molecule, the CLint scaled at 1 µM ([1]; 1 microM) was under 0.1 L/h/kg, the CLint scaled at 0.1 µM ([2]; 0.1 microM) was 75 L/h/kg and the CLint scaled at 0.3 µM ([2]; 0.3 microM) was 74 L/h/kg. For the same molecule, the CLint scaled at 1 µM ([2]; 1 microM) was 20 L/h/kg and the inhibition at 10 µM (BACE1) was 100%.
